Experimental data taken from patent US20060253078A1, “Method of treating skin disorders with stratum corneum piercing device” (priority 2005, published 2006).

Experiment: In vitro electrode-salicylic acid compatibility (color change of test solution)
Type: physicochemical
Conditions: for Solution color change: 1.5% salicylic acid in 50% ethanol/50% water, cathode Platinum
Procedure: The following experiment was conducted to determine the compatibility of electrodes with salicylic acid. A pair of test electrodes was immersed in 5 ml of 1.5% salicylic acid solution (solvent 50% ethanol/50% water). A pre-determined voltage was applied to the electrodes (by connecting the electrodes to a battery or batteries) for certain length of time as indicated in Table 3. Observations were made on color change of the test solution.

Solution color change (anode Platinum, 3 V, 10 min): Colorless → yellow
Solution color change (anode Platinum, 9 V, 10 min): Colorless → brown
Solution color change (anode Zinc, 1.5 V, 10 min): No color change
Solution color change (anode Zinc, 3 V, 10 min): No color change
Solution color change (anode Zinc, 9 V, 30 min): No color change
Discoloration of the solution (compatibility with salicylic acid) (platinum anode): resulted in discoloration
Discoloration of the solution (compatibility with salicylic acid) (zinc anode, during passage of electric current): no discoloration
Compound: O=C(O)c1ccccc1O [salicylic acid]
